According to ChEMBL document CHEMBL3098059, “Identification by in silico and in vitro screenings of small organic molecules acting as reversible inhibitors of kallikreins” (Eur J Med Chem, 2013):
Active and inactive are the calls of the source. The calls are words filed in the database; no cut-off is given here.

Legend:
[1] = molecular target: T1, Kallikrein-7 (Homo sapiens, UniProt P49862); experiment: Reversible inhibition of human kallikrein7 using Suc-Leu-Leu-Val-Tyr-AMC as substrate after 15 to 60 mins by fluorescence assay
Target sequence in this assay (P49862 30-253 limits assumed): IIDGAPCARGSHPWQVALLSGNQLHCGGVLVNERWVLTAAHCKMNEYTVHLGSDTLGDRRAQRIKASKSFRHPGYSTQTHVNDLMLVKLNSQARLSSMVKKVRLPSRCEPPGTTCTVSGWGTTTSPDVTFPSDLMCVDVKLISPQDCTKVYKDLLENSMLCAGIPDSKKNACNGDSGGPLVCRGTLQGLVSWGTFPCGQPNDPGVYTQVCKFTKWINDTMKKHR

[2] = molecular target: T1, Kallikrein-7; experiment: Ratio of Ki for mixed-type inhibition of human kallikrein7 assessed as enzyme-substrate-inhibitor complex to Ki for mixed-type inhibition of human kallikrein7 assessed as enzyme-inhibitor complex
Target sequence in this assay (P49862 30-253 limits assumed): as above

[3] = molecular target: Kallikrein-5 (Homo sapiens) (UniProt Q9Y337); experiment: Inhibition of human kallikrein5 using Boc-Val-Pro-Arg-AMC as substrate at 50 uM after 15 mins by fluorescence assay
[4] = molecular target: T2, Suppressor of tumorigenicity 14 protein (Homo sapiens) (UniProt Q9Y5Y6); experiment: Inhibition of matriptase (unknown origin) using Boc-Gln-Ala-Arg-AMC as substrate at 50 uM after 15 mins by fluorescence assay
T2 sequence (whole entry): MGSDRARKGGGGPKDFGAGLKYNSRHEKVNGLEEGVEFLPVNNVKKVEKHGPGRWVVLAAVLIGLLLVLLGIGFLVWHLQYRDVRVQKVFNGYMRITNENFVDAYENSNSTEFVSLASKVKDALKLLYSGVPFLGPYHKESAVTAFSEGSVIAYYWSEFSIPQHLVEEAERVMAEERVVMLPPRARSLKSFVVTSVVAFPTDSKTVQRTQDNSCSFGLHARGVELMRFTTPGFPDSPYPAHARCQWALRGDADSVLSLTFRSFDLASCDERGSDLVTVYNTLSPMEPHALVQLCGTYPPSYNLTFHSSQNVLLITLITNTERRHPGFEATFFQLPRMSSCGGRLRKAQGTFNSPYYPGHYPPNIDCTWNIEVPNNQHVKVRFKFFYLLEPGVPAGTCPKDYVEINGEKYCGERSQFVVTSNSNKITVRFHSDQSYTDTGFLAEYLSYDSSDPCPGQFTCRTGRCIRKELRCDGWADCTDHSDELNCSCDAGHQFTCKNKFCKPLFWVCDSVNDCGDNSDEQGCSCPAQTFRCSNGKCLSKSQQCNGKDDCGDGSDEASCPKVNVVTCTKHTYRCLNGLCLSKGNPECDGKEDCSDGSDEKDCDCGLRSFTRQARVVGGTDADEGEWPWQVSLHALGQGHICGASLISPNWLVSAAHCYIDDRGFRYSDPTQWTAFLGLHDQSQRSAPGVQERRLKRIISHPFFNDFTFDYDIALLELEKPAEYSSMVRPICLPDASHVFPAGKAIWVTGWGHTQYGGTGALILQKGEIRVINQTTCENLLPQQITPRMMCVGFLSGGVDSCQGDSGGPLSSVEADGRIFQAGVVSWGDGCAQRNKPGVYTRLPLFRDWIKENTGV

[5] = molecular target: T2, Suppressor of tumorigenicity 14 protein (Homo sapiens); experiment: Reversible inhibition of matriptase (unknown origin) using Boc-Gln-Ala-Arg-AMC as substrate after 15 to 60 mins by fluorescence assay
[6] = Cytotoxicity against human keratinocytes assessed as cell viability at 10 uM after 24 to 48 hrs by neutral red assay; format: cell-based, Keratinocyte; conditions: keratinocyte, 10 µM
[7] = molecular target: T1, Kallikrein-7; experiment: Mixed-type inhibition of human kallikrein7 using Suc-Leu-Leu-Val-Tyr-AMC as substrate assessed as enzyme-inhibitor complex after 15 to 60 mins by Lineweaver-Burk/Eadie-Hofstee plot analysis
Target sequence in this assay (P49862 whole entry): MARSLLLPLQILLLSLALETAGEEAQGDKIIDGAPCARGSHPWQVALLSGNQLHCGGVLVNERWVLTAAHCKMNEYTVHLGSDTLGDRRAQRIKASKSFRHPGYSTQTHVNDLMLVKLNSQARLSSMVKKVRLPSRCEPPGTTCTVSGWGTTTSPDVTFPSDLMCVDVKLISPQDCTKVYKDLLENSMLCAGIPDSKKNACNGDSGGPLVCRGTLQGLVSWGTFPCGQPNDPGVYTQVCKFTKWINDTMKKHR

[8] = molecular target: T1, Kallikrein-7; experiment: Mixed-type inhibition of human kallikrein7 using Suc-Leu-Leu-Val-Tyr-AMC as substrate assessed as enzyme-substrate-inhibitor complex after 15 to 60 mins by Lineweaver-Burk/Eadie-Hofstee plot analysis
Target sequence in this assay (P49862 whole entry): as above

[9] = molecular target: T3, Kallikrein-14 (Homo sapiens) (UniProt Q9P0G3); experiment: Reversible inhibition of human kallikrein14 using Boc-Val-Pro-Arg-AMC as substrate after 15 to 60 mins by fluorescence assay
T3 sequence (whole entry): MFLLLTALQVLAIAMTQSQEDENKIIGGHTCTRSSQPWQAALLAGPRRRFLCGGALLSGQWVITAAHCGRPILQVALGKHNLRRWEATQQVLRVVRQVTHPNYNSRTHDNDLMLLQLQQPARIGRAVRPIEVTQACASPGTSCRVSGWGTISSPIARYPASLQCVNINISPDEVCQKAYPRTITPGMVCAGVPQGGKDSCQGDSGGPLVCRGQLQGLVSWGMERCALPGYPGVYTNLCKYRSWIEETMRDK

[10] = molecular target: T3, Kallikrein-14 (Homo sapiens); experiment: Inhibition of human kallikrein14 using Boc-Val-Pro-Arg-AMC as substrate at 50 uM after 15 mins by fluorescence assay
[11] = Cytotoxicity against human keratinocytes assessed as cell viability at 1 uM after 24 to 48 hrs by neutral red assay; format: cell-based; conditions: keratinocyte
[12] = molecular target: Kallikrein-5 (Homo sapiens) (UniProt Q9Y337); experiment: Reversible inhibition of human kallikrein5 using Boc-Val-Pro-Arg-AMC as substrate after 15 to 60 mins by fluorescence assay
[13] = molecular target: Kallikrein-5 (Homo sapiens) (UniProt Q9Y337); experiment: Competitive inhibition of human kallikrein5 using Boc-Val-Pro-Arg-AMC as substrate at 50 uM after 15 to 60 mins by Lineweaver-Burk/Eadie-Hofstee plot analysis
[14] = molecular target: T1, Kallikrein-7; experiment: Inhibition of human kallikrein7 using Suc-Leu-Leu-Val-Tyr-AMC as substrate after 15 mins by fluorescence assay
Target sequence in this assay (P49862 whole entry): as the sequence (P49862 whole entry) above

[15] = Cytotoxicity against human keratinocytes assessed as cell viability at 100 uM after 24 to 48 hrs by neutral red assay; format: cell-based; conditions: keratinocyte

Chain of Kallikrein-5 (Homo sapiens) (Q9Y337 whole entry): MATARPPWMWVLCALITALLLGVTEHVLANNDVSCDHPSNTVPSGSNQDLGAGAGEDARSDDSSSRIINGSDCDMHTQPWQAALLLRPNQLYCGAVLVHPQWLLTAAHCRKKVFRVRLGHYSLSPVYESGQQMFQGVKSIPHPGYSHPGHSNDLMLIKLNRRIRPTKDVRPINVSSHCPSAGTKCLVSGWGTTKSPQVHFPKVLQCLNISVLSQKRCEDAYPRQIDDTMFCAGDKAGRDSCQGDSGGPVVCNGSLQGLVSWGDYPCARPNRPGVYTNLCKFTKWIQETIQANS

inhibition [1]: Active
Ratio Ki [2]: 2
inhibition [3]: < 30%
inhibition [4]: < 30%
inhibition [5]: Active
Ki [7]: 15 µM
Ki [8]: 44 µM
inhibition [9]: Active
inhibition [10]: < 30%
inhibition [12]: Active
inhibition [13]: < 30%
IC50 [14]: 25 µM
SMILES: Nc1ccc2[nH]c(SCc3nc4ccccc4c(=O)n3-c3cccc(C(F)(F)F)c3)nc2c1
Activity [6]: Non-toxic
Activity [11]: Non-toxic
Activity [15]: Non-toxic
